Results as given in patent US4873346A, “Substituted benzothiazoles, benzimidazoles, and benzoxazoles” (The Upjohn Company, priority 1985, dated 1989).
Where a name gives a salt, the structure may show the parent alone.

Tests used:
SRS-A formation = assay: SRS-A inhibition in rat mononuclear cells challenged with calcium ionophore; assay type: cell-based; conditions: cysteine
Procedure: This test is conducted in rat mononuclear cells incubated in the presence of cysteine and challenged with a calcium ionophore (which induces SRS-A formation).

lipoxygenase = lipoxygenase inhibition, oxygen uptake of washed human platelets after arachidonic acid; assay type: cell-based
Procedure: Some ot the compounds of the present invention were also tested for lipoxygenase inhibition. Arachidonic acid is added to washed human platelets and the oxygen uptake is measured using oxygraph cells. A decrease of oxygen uptake versus the control cell indicates inhibition of lipoxygenase. For a full description of the procedure see, Wallach, et al., Biochim, Biophys. Acta. 231:445 (1976).

mucus secretion = assay: canine tracheal secretion model (inhibitory effect on mucus secretion); assay type: in vivo
Procedure: Several of the compounds of the present invention were also tested for their inhibitory effect on mucus secretion in the canine tracheal secretion model.

Compound	inhibition of mucus secretion (in words) (mucus secretion)	further results
C=CCNc1nc2ccc(O)cc2s1 [2-(2-propenylamino)-6-benzothiazolol, 2-(2-Propenylamino)-6-benzothiazolol]	caused inhibition of mucus secretion	inhibition of the leukotriene system (in words) (SRS-A formation): active; inhibition of the lipoxygenase system (in words) (lipoxygenase): active
C=CCCCCSc1nc2ccc(O)cc2s1.O=C(O)/C=C\C(=O)O [2-(5-hexenylthio)-6-benzothiazolol maleic acid salt]	caused inhibition	–
C=CCCCCSc1nc2ccc(O)cc2[nH]1 [2-(5-hexenylthio)-H-benzimidazol-6-ol, 2-(5-Hexenylthio)-1H-benzimidazol-6-ol]	caused inhibition	–
CCN(CC)CCCNc1nc2ccc(O)cc2s1.Cl.Cl [2-[[3-(Diethylamino)propyl]amino]-6-benzothiazolol Dihydrochloride]	caused inhibition	–
CCN(CC)CCCNc1nc2ccc(O)cc2s1 [2-[[3-(Diethylamino)propyl]amino]-6-benzothiazolol, hydroquinone dihydrochloride salt]	caused inhibition	–
COC(=O)CCCCCNc1nc2ccc(O)cc2s1 [6-[(6-hydroxy-2-benzothiazolyl)aminohexanoic acid methyl ester]	–	inhibition on Indomethacin blocked/Arachidonic Acid (AA) induced mucus secretion (mucus secretion; Indomethacin blocked/AA induced): 100%; inhibition on baseline mucus secretion (mucus secretion; baseline): 21.8%; inhibition on hypoxia mucus secretion (mucus secretion; hypoxia): 63.4%
COC(=O)CCCCCSc1nc2ccc(NC(=O)CCC(=O)O)cc2s1 [6-[[6-[(3-Carboxy-1-oxopropyl)amino]-2-benzothiazolyl]thio]hexanoic acid methyl ester, tromethamine salt]	caused inhibition	–
